Residue numbers refer to the chain shown, from its start.
Legend:
[1] = biological target: T1, CBC (6 mutations) (Homo sapiens, UniProt P52298, D107R/Y50A/Y89A); test: ITC, m^7GTP binding to CBC with triple mutants of both CBP20 and CBP80; conditions: 25 °C, pH 7.8, CBP80 Y461A/R610E/H651A + CBP20 Y50A/Y89A/D107R, mean ± SD of 2 experiments
T1 sequence (P52298 1-156 Y50A/Y89A/D107R): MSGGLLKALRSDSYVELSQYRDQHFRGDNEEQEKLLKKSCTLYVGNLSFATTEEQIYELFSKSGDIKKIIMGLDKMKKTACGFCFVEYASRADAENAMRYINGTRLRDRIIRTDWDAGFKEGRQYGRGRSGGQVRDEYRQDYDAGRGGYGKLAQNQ
T1 sequence (Q09161 20-790 Y461A/R610E/H651A partner): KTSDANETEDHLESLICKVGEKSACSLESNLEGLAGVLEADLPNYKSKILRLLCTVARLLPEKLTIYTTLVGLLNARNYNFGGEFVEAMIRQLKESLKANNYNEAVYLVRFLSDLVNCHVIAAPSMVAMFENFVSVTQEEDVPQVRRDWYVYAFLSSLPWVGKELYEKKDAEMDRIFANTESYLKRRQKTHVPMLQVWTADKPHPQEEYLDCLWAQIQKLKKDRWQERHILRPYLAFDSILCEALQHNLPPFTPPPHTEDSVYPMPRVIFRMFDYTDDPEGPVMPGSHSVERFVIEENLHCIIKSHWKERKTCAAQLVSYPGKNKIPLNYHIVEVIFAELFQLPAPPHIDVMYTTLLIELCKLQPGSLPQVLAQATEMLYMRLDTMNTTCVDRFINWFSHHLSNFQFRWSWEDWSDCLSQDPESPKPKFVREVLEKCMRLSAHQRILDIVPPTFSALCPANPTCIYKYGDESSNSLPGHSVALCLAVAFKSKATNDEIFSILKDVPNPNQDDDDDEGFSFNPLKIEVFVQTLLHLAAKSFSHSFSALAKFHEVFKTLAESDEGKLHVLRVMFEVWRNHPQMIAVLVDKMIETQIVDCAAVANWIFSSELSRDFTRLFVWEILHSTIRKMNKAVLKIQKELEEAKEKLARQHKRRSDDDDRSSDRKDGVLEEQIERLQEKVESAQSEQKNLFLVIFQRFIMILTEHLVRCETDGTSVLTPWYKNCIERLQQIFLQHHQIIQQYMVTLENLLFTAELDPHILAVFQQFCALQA
Description: (§7) For CBC, a triple mutant in CBP80 (Y461A/R610E/H651A) was combined with various mutations in CBP20 (Y50A, Y50A/Y89A, or Y50A/Y89A/D107R).
(§8) ITC experiments were performed on a MicroCal ITC200 system (Malvern). Proteins were dialyzed overnight in buffer 20 mM HEPES, 120 mM NaCl, 2 mM tris(2-carboxyethyl)phosphine, pH 7.8. Injections of 1.5 µl protein A were added at an interval of 120–180 s into 205 µl of protein B in the cell, with a stirring speed of 800 rpm at 25 °C. The experimental data were analysed with MicroCal ITC Origin and were fitted to a single-site binding equation.

[2] = biological target: T2, CBC-ARS2 827–871 (Homo sapiens, UniProt P52298); test: ITC, m^7GTP titrated to CBC saturated with ARS2 827–871; assay type: binding
T2 sequence (P52298 1-156): T1 sequence (P52298 1-156 Y50A/Y89A/D107R) with A50Y, A89Y, R107D
T2 sequence (Q09161 20-790 partner): T1 sequence (Q09161 20-790 Y461A/R610E/H651A partner) with A442Y, E591R, A632H
T2 sequence (Q9BXP5 832-876 partner): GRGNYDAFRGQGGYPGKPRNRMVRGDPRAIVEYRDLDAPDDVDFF
Source text: (§1) Supplementary Figure 7. Influence of ARS2 and NELF-E on m7GTP binding to CBC.
(§2) Representative isothermal titration calorimetry data, presented as in the caption to Figure 1C,
(§3) allowing determination of the affinity of CBC to m7GTP in the absence (left) or in the
(§4) presence of bound ARS2827-871 (middle) or NELF-E244-380 (right). CBC or CBC saturated
(§5) with 2.2 molar excess of ARS2827-871 or NELF-E244-380 in the sample cell was titrated by
(§6) m7GTP. KD values represent the average from at least two independent experiments (see […]

[3] = biological target: CBC-NELF-E 244–380 (Homo sapiens, UniProt P52298); test: ITC, m^7GTP titrated to CBC saturated with NELF-E 244–380; assay type: binding
Source text: as §1, §2, §3, §4, §5, §6

[4] = biological target: T3, CBCmut (Homo sapiens, UniProt P52298, Y50A); test: ITC, m^7GTP binding to CBCmut; conditions: 25 °C, pH 7.8, m^7GTP titrated to CBCmut, mean ± SD of 2 experiments
T3 sequence (P52298 1-156 Y50A): T1 sequence (P52298 1-156 Y50A/Y89A/D107R) with A89Y, R107D
T3 sequence (Q09161 20-790 Y461A/R610E/H651A partner): T1 sequence (Q09161 20-790 Y461A/R610E/H651A partner)
Description: as §7, §8

[5] = compared to m^7GTP binding to CBC alone

CBC-NELF-E 244–380, sequence (P52298 whole entry): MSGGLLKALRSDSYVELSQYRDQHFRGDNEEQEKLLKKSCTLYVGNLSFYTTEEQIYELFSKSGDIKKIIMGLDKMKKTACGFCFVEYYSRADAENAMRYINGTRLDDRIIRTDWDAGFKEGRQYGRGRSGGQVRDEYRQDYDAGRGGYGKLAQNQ
CBC-NELF-E 244–380, sequence (Q09161 20-790 partner): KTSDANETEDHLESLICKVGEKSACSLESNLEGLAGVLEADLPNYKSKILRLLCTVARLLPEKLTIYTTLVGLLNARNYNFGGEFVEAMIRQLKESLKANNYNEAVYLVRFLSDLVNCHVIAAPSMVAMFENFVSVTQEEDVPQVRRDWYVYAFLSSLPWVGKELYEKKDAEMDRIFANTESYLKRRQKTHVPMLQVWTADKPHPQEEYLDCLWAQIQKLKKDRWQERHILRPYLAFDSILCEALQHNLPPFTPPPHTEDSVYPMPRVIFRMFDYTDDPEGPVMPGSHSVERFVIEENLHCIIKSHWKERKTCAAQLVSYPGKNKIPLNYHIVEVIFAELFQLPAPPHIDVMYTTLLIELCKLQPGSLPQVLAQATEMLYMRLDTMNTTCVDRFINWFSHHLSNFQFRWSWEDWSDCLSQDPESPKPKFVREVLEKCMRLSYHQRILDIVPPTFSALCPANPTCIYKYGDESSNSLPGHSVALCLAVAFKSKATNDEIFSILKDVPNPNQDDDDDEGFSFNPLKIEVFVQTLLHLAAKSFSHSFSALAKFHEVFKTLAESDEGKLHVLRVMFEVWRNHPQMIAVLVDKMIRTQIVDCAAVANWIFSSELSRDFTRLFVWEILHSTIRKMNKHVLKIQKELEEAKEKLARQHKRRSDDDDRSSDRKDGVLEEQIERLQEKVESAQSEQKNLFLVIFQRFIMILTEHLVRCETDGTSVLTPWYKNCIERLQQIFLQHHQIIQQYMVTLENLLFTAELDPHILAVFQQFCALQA
CBC-NELF-E 244–380, sequence (P18615 244-380 partner): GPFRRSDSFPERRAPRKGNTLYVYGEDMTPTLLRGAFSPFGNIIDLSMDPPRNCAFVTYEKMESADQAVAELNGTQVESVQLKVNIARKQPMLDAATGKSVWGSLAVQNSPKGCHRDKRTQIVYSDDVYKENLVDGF

Kd [1]: 70 ± 4 µM
Kd ([2]; 25 °C, pH 7.8, CBC saturated with 2.2 molar excess of ARS2 827–871, titrated by m^7GTP, mean ± SD of 2 experiments, SD): 0.018 ± 0.001 µM
Increase of the affinity of CBC for cap (m^7GTP) by saturating ARS2 [2, 5]: ~ 7 factor
Kd ([3]; 25 °C, pH 7.8, CBC saturated with 2.2 molar excess of NELF-E 244–380, titrated by m^7GTP, mean ± SD of 3 experiments, SD): 0.044 ± 0.002 µM
Increase of the affinity of CBC for cap (m^7GTP) by saturating NELF-E [3, 5]: ~ 3 factor
K D [4]: as well as wild-type CBC
Kd ([4]; SD): 0.095 ± 0.024 µM
SMILES: C[n+]1cn([C@@H]2O[C@H](COP(=O)(O)OP(=O)([O-])OP(=O)(O)O)[C@@H](O)[C@H]2O)c2nc(N)[nH]c(=O)c21 [m^7GTP]

Source: publication PMC5670239, “Structural basis for mutually exclusive co-transcriptional nuclear cap-binding complexes with either NELF-E or ARS2” (Nature Communications, 2017)
